Results: patent publication US20070173539A1, “Use of malonomicin and analogs in fungicidal applications” (priority 2006, published 2007)

Key:
Assay type in all cases: in vivo
[1] = system: Puccinia recondita f. sp. tritici (PUCCRT); assay: Brown Rust of Wheat Drop Line Test; details: Drop Line Test 0.5 μg/leaf, 2 microliter drop on wheat leaf
Method: Brown Rust of Wheat (Puccinia recondita f. sp. tritici-PUCCRT) (1 DP) Wheat (cultivar Monon) was grown in plastic pots (6.2 cm×8.75 cm) containing 50 percent mineral soil, 50 percent Metro-Mix 360 (W.R Grace and Co.) until the seedlings were 10-20 cm tall. These plants were then sprayed to runoff with the test compound at a rate of 200 ppm. After 24 hours the test plants were inoculated by spraying with an aqueous spore suspension of Puccinia recondita f. sp. tritici (PUCCRT). The plants were then transferred to a dew chamber for 24 hours, then to the greenhouse until disease developed on the untreated control plants. In Example 3, a Drop Line Test was used, wherein instead of spraying the plant to runoff, a 2 microliter drop was placed on the wheat leaf and observed for disease control.

[2] = system: Plasmopara viticola (PLASVI); assay: Downy Mildew of Grape one day protectant (1DP); details: grape (Carignane), sprayed to runoff, rate 200 ppm
Method: Final treatment volumes were obtained by adding 0.1 percent aqueous Ethomeen T25 or 0.1 percent aqueous Spraymate X77+0.1 percent wt./vol. ammonium sulfate^+. Downy Mildew of Grape (Plasmopara viticola-[…]) Vines (cultivar Carignane) were grown from seed in a soilless peat-based potting mixture “Metro-Mix 360” (W.R Grace and Co.) until the seedlings were 10-20 cm tall. These plants were then sprayed to runoff with the test compound at a rate of 200 ppm. After 24 hours the test plants were inoculated by spraying with an aqueous sporangia suspension of Plasmopara viticola ([…]). The plants were then transferred to a dew chamber for 24 hours, then to the greenhouse until disease developed on the untreated control plants.

[3] = system: Phytophthora infestans (PHYTIN); details: 1DP, tomato (rutgers), sprayed to runoff, rate 200 ppm
[4] = system: Septoria tritici (SEPTTR); assay: Speckled Leaf Blotch of Wheat one day protectant (1DP); details: wheat (Monon), sprayed to runoff, rate 200 ppm
Method: Final treatment volumes were obtained by adding 0.1 percent aqueous Ethomeen T25 or 0.1 percent aqueous Spraymate X77+0.1 percent wt./vol. ammonium sulfate^+. Speckled Leaf Blotch of Wheat (Septoria tritici-[…]) Wheat (cultivar Monon) was grown in plastic pots (6.2 cm×8.75 cm) containing 50 percent mineral soil, 50 percent Metro-Mix 360 (W.R Grace and Co.) until the seedlings were 10-20 cm tall. These plants were then sprayed to runoff with the test compound at a rate of 200 ppm. After 24 hours the test plants were inoculated by spraying with an aqueous spore suspension of Septoria tritici ([…]). The plants were then transferred to a dew chamber for 24 hours, then to the greenhouse until disease developed on the untreated control plants.

[5] = system: Erysiphe graminis f. sp. tritici (ERYSGT); assay: Powdery Mildew of Wheat one day protectant (1DP); details: wheat (Monon), sprayed to runoff, rate 200 ppm
Method: Final treatment volumes were obtained by adding 0.1 percent aqueous Ethomeen T25 or 0.1 percent aqueous Spraymate X77+0.1 percent wt./vol. ammonium sulfate^+. Powdery Mildew of Wheat (Erysiphe graminis f. sp. tritici-[…]) Wheat (cultivar Monon) was grown in plastic pots (6.2 cm×8.75 cm) containing 50 percent mineral soil, 50 percent Metro-Mix 360 (W.R Grace and Co.) until the seedlings were 10-20 cm tall. These plants were then sprayed to runoff with the test compound at a rate of 200 ppm. After 24 hours the test plants were inoculated with Erysiphe graminis f. sp. tritici ([…]) by dusting spores from stock plants onto the test plants. The plants were then transferred to the greenhouse until disease developed on the untreated control plants.

[6] = system: Leptosphaeria nodorum (LEPTNO); assay: Glume Blotch of Wheat one day protectant (1DP); details: wheat (Yuma), sprayed to runoff, rate 200 ppm
Method: Final treatment volumes were obtained by adding 0.1 percent aqueous Ethomeen T25 or 0.1 percent aqueous Spraymate X77+0.1 percent wt./vol. ammonium sulfate^+. Glume Blotch of Wheat (Leptosphaeria nodorum-[…]) Wheat (cultivar Yuma) was grown in plastic pots (6.2 cm×8.75 cm) containing 50 percent mineral soil, 50 percent Metro-Mix 360 (W.R Grace and Co.). until the seedlings were 10-20 cm tall. These plants were then sprayed to runoff with the test compound at a rate of 200 ppm. After 24 hours the test plants were inoculated by spraying with an aqueous spore suspension of Leptosphaeria nodorum ([…]). The plants were then transferred to a dew chamber for 24 hours, then to the greenhouse until disease developed on the untreated control plants.

[7] = system: Puccinia recondita f. sp. tritici (PUCCRT); assay: Brown Rust of Wheat one day protectant (1DP); details: wheat (Monon), sprayed to runoff, rate 200 ppm
Method: Final treatment volumes were obtained by adding 0.1 percent aqueous Ethomeen T25 or 0.1 percent aqueous Spraymate X77+0.1 percent wt./vol. ammonium sulfate^+. Brown Rust of Wheat (Puccinia recondita f. sp. tritici-PUCCRT) (1 DP) Wheat (cultivar Monon) was grown in plastic pots (6.2 cm×8.75 cm) containing 50 percent mineral soil, 50 percent Metro-Mix 360 (W.R Grace and Co.) until the seedlings were 10-20 cm tall. These plants were then sprayed to runoff with the test compound at a rate of 200 ppm. After 24 hours the test plants were inoculated by spraying with an aqueous spore suspension of Puccinia recondita f. sp. tritici (PUCCRT). The plants were then transferred to a dew chamber for 24 hours, then to the greenhouse until disease developed on the untreated control plants.

| Structure (SMILES) | PUCCRT percent control of plant disease [1] | PLASVI percent control of plant disease [2] | PHYTIN percent control of plant disease [3] | SEPTTR percent control of plant disease [4] | ERYSGT percent control of plant disease [5] | LEPTNO percent control of plant disease [6] | PUCCRT percent control of plant disease [7] |
| --- | --- | --- | --- | --- | --- | --- | --- |
| C[C@H](N)C(=O)NC(CC(=O)O)(CC(=O)C1C(=O)N[C@@H](CN)C1=O)C(=O)O (some centres unmarked) [Compound III] | + (+ = 30-74 percent control of plant disease) |  |  |  |  |  |  |
| C[C@H](N)C(=O)NC(CC(=O)C1=C(O)[C@H](CN)NC1=O)(C(=O)O)C(=O)O [Compound II] |  | − (− = 0-29 percent control of plant disease) | + (+ = 30-74 percent control of plant disease) | + (+ = 30-74 percent control of plant disease) | − (− = 0-29 percent control of plant disease) | − (− = 0-29 percent control of plant disease) | ++ (++ = 75-100 percent control of plant disease) |
| NC[C@@H]1NC(=O)C(C(=O)CC(CC(=O)O)(NC(=O)[C@@H](N)CO)C(=O)O)=C1O (some centres unmarked) [Compound VI] |  |  | − (− = 0-29 percent control of plant disease) | + (+ = 30-74 percent control of plant disease) | − (− = 0-29 percent control of plant disease) | − (− = 0-29 percent control of plant disease) | ++ (++ = 75-100 percent control of plant disease) |
| NC[C@@H]1NC(=O)C(C(=O)CC(CC(=O)O)(NC(=O)[C@@H](N)CO)C(=O)O)=C1O (some centres unmarked) [Compound V] |  |  | + (+ = 30-74 percent control of plant disease) | − (− = 0-29 percent control of plant disease) | − (− = 0-29 percent control of plant disease) | − (− = 0-29 percent control of plant disease) | ++ (++ = 75-100 percent control of plant disease) |
